Patent US5593960A, “Cyclic heptapeptide anti-inflammatory agent” (The Regents of the University of California, priority 1995, dated 1997)

Tested on: phorbol-induced inflammation (edema) of mouse ears
Experiment: Inhibition of Mouse Ear Edema - Standard Protocol (topical, PMA-induced)
Assay type: in vivo
Conditions: for Inhibition of mouse ear edema: relative to PMA control
Experimental: Cyclomarin-A was tested by measuring inhibition of phorbol-induced inflammation (edema) of mouse ears. […] The compound is topically applied in acetone to the inside pinnae of the ears of mice in a solution containing the edema-causing irritant, i.e. phorbol 12-myristate 13-acetate (PMA). PMA alone (2 microgram per ear) or in combination with varying amounts of cyclomarin-A was applied to the left ears of (5 mice per treatment group). Acetone was applied to all right ears. After a 3-hour and 20-minute incubation at 23° C., the mice were sacrificed, the ears removed and bores taken and weighed. Edema was measured by subtracting the weight of the right ear (acetone control) from the weight of the left ear (treated). The results were recorded as a percent decrease (inhibition) or percent increase (potentiation) in edema relative to the PMA control group edema.

cyclomarin-A
Inhibition of mouse ear edema (5 ug/ear with PMA 2 microgram per ear): 3.0%
Inhibition of mouse ear edema (10 ug/ear with PMA 2 microgram per ear): 39.0%
Inhibition of mouse ear edema (25 ug/ear with PMA 2 microgram per ear): 57.0%
Inhibition of mouse ear edema (50 ug/ear with PMA 2 microgram per ear): 88.0%
topical anti-inflammatory activity (general statement): exhibit topical anti-inflammatory activity
